Assay results published in patent publication US10857180B2, “Pharmaceutical composition for improving health, cure abnormalities and degenerative disease, achieve anti-aging effect of therapy and therapeutic effect on mammals and method thereof” (priority 2014, dated 2020).
Where two headings read alike, the source gives them in different places.

What was measured:
[1] = tested on: human colon adenocarcinoma (COLO 205 line) cells; assay: Immunocytochemistry (H-Score) of COLO 205 cells; assay type: cell-based
Procedure: When making the immunocytochemistry (ICC) assay, cells on microscope glasses (cytospin preparations) were fixed in the solution (methanol+acetone 1:1) for 2 hours at t 20° C. and incubated with 1% solution of bovine serum albumin (BSA) for 20 minutes. Then the monoclonal antibodies-CD44 (Diagnostic BioSystems), E-cadherin (ThermoScientific), N-cadherin (NeoMarker, BioLegend), SLUG (GeneTex)—were applied for the time period specified by the manufacturer (30 to 60 minutes), after which the Poly Vue imaging system conjugated with peroxidase was used and the enzyme activity was detected using diaminobenzidine (ThermoScientific) as a substrate. After the immunocytochemical reaction the preparations were washed with water and counterstained with hematoxylin-eosin (for 15 to 30 seconds).
The results were analyzed by counting cells with expression (brown colored cells) using a light microscope, and were assessed using the classical H-Score method: S=1×A+2×B+3×C, where S is the H-Score index giving a range of 0 (protein is not detected) to 300 (high-level expression in 100% of the cells); A is the percentage of weakly staining cells, B is the percentage of moderately staining cells and C is the percentage of strongly staining cells.

[2] = tested on: stem cells derived from rat fibroblasts (RF); assay type: cell-based
[3] = tested on: renal cell carcinoma (PA) cells; assay: Immunocytochemistry (H-Score) of PA cells; assay type: cell-based, rat
Procedure: When making the immunocytochemistry (ICC) assay, cells on microscope glasses (cytospin preparations) were fixed in the solution (methanol+acetone 1:1) for 2 hours at t 20° C. and incubated with 1% solution of bovine serum albumin (BSA) for 20 minutes. Then the monoclonal antibodies—CD44 (Diagnostic BioSystems), E-cadherin (ThermoScientific), N-cadherin (NeoMarker, BioLegend)—were applied for 60 minutes, after which the Poly Vue imaging system conjugated with peroxidase was used and the enzyme activity was detected using diaminobenzidine (ThermoScientific) as a substrate.
After the immunocytochemical reaction the preparations were washed with water and counterstained with hematoxylin-eosin (for 15-30 seconds). The results were analyzed by counting cells with expression (brown colored cells), using a light microscope and were assessed using the classical H-Score method: S=1×A+2×B+3×C, where S is the H-Score index giving a range of 0 (protein is not detected) to 300 (high-level expression in 100% of the cells); A is the percentage of weakly stained cells, B is the percentage of moderately stained cells and C is the percentage of strongly stained cells.

[4] = tested on: renal cell carcinoma (PA) cells; assay: Transformation of PA tumor cells into type A/B cells (trypan blue); assay type: cell-based, rat; conditions: for concentration of cells of type A at first calculation: 10 hours after start, both concentration models; for time for 80% of the transformation into phenotype A: total time 140 hours
Source text: Staining of Cell Suspension with Trypan Blue and Visual Control of Changes in the Shape, Color and Size of the Cells will now be discussed. The visual control method was based on the observation of state of the plasma membrane permeability after the action of materials under study, and reflects the degree of membrane's damage, making it possible to estimate an ability of nuclear proteins to absorb the dye.
To make the analysis, the cell suspension, after it was exposed to the action of materials, in a volume of 20 mcl was mixed with 20 mcl of trypan blue solution and resuspended. The obtained solution was placed in a hemocytometer chamber for visual analysis and quantitative estimation of the cells. To make the quantitative estimation of the cells, they were separated from the substrate using Versene solution and counted by staining cells with trypan. A change in the color of a cell was indicative of the violation of intactness of the cell membrane, and the more pronounced was the coloration, the less viable the cell was. […] They are easily distinguishable from dark damaged cells and easily identified with ordinary light microscope.
Primary cell culture for our in vitro experiments was obtained by enzymatic treatment of tumor material (using trypsin solution) from a strain of renal cell carcinoma (PA) in a rat Visually (after its removal from the animal), the tumor looked as a nodular fleshy growth of a whitish-pink color of rather dense consistency, marginated from other tissues by a joint capsule. The main morphological signs of PA tumor in the animal can be described as follows. Small (1.5 to 2 grams) fragments without vessels and blastic lesions were excised aseptically from the surgically removed tumor and then cut them with scissors to smaller pieces of 0.2 to 0.3 mm in size and cultured in a solution of trypsin. The culture medium contained the following components: RPMI-1640 (Sigma, USA) as the base plus 10% newborn calf serum and 40 mcg/ml of gentamicin. Trypsinization was performed in a humidified atmosphere of 5% CO2 at 37° C. with constant mixing of the contents in a magnetic stirrer. The isolated cells were washed three times in a culture medium by centrifuging and before starting the experiment a quantitative assessment of cells was carried out in the Goryaev chamber with supravital staining of the cells with trypan blue.
Analysis of the effect of all components on the renal cell carcinoma (PA) was conducted to determine the relationship between the amount of the preparation (concentration characteristics of the component) and the quantitative characteristics of the cells. Assessment of the effect of the components was carried out on 2 concentration models with 30 and 300 thousand original tumor cells. After the cells were cultured, cell suspensions were prepared in the plates with the culture medium and an effect of the preparations (in various concentrations) on the tumor cells was assessed. The experiment was started with the concentration of 10 mg of the active substance per 1 ml of the solvent (saline with 5% glucose).
The amount of culture medium in each well was 200 mcl for 30 thousand cells and 2 ml for 300 thousand cells, respectively. The amounts of drugs (active substances) for 2 concentration models differed according to the amount of cells and culture medium, i.e., the amount of drug in the experiment with 300 thousand cells was ten times as large as compared with the same in the experiment with 30 thousand cells. The result of effects of the components is shown in FIGS. 22, 23 for light isotope components and in FIG. 25 for the elements with natural distribution of isotopes. Assessment of the effect of the components was performed by comparing the external factors of cells (color, size, shape) prior to the experiment and after staining. […]

A-549 cell line = assay: Scratch assay, A-549 cells; conditions: for time of restoration of the cell monolayer: dose not stated, 24 hours in the control; for restoration of the cell monolayer after 72 hours: ^64Zn 20 and 30 mcg/ml, ^39K 2 mg/ml, control restored after 24 hours
[5] = dose not stated, 72 hours in the control

O=S(=O)([O-])[O-].[24Mg+2] [^24Mg]
number of E-cadherin-positive cells [1]: increasing the number | slug transcription factor expression [1]: in the cytoplasm and in the nucleus | time of restoration of the cell monolayer ([2]; ^24Mg 2 mg/ml): 72 h | time of restoration of the cell monolayer ([2]; ^24Mg 3 mg/ml): 65 to 72 h | time of restoration of the cell monolayer ([2]; ^24Mg 4 mg/ml): 82 h | number of CD44-positive cells ([3]; ^24Mg 2 mg/ml): did not differ from that of control cells | number of CD44-positive cells ([3]; ^24Mg 3.5 mg/ml): increase significantly | number of E-cadherin-positive cells ([3]; ^24Mg in 2 doses): increase in the number | number of cells expressing N-cadherin ([3]; ^24Mg in 2 doses): slight increase | concentration of cells of type A at first calculation [4]: 100% | cells of type A ([4]; ^24Mg 0.4 mg/ml): about 5% | cells of type A ([4]; ^24Mg 2 mg/ml): 25% | cells of type B ([4]; ^24Mg 2 mg/ml): 75% | cells of type A ([4]; ^24Mg 10 mg/ml): 100% | changes (cell transformation) in the first 10 hours [4]: 62% | time for 80% of the transformation into phenotype A [4]: ≤ 45 h | time of restoration of the cell monolayer (A-549 cell line): 72 h

[39K+].[Cl-] [^39K]
number of E-cadherin-positive cells [1]: significantly increased | slug transcription factor expression [1]: increased its expression in the cytoplasm | E-cadherin, H-Score scale ([1]; 87 in the control): 184 | time of restoration of the cell monolayer ([2]; ^39K 1 mg/ml): 72 h | time of restoration of the cell monolayer ([2]; ^39K 2 mg/ml): 96 h | time of restoration of the cell monolayer [2, 5]: 72 h | number of E-cadherin-positive cells ([3]; ^39K 0.4 mg/ml): significantly increased | number of E-cadherin-positive cells ([3]; ^39K 2 mg/ml): significantly reduced | number of CD44-positive cells ([3]; ^39K both doses): significantly increased | N-cadherin ([3]; ^39K dose D2): almost complete inhibition | time of transformation of 100% initial tumor cells into phenotype A [4]: 80 h | concentration of cells of type A at first calculation [4]: 100% | A cells ([4]; ^39K 2 mg/ml): About 50% | cells of type A ([4]; ^39K 10 mg/ml): 100% | changes (cell transformation) in the first 10 hours [4]: 40% | time for 80% of the transformation into phenotype A [4]: ≤ 20 h | restoration of the cell monolayer after 72 hours (A-549 cell line): incomplete | time of restoration of the cell monolayer (A-549 cell line): 72 h

O=S(=O)([O-])[O-].[64Zn+2] [^64Zn]
number of E-cadherin-positive cells [1]: significantly increased | slug transcription factor expression [1]: in the cytoplasm and in the nucleus | time of restoration of the cell monolayer [2, 5]: 72 h | CD44 marker positive cells, H-Score scale ([3]; 3.2 mcg/ml): 126 units | N-cadherin positive cells ([3]; ^64Zn 0.128 mcg/ml): slight increase | number of E-cadherin-positive cells ([3]; ^64Zn 0.128 mcg/ml): increased number | N-cadherin-positive cells ([3]; ^64Zn 3.2 mcg/ml): substantial increase | number of E-cadherin-positive cells ([3]; ^64Zn 3.2 mcg/ml): decrease in the number | time of transformation of 100% initial tumor cells into phenotype A [4]: ≤ 50 h | A cells ([4]; ^64Zn 0.08 mg/ml): 100% | cells of type A ([4]; ^64Zn 0.128 mg/ml): about 30% | cells of type A obtainable with 1 microgram of ^64Zn sulfate ([4]; assuming 50% of cells transformed): 23438 cells | cells of type A obtainable with 1 microgram of ^64Zn sulfate ([4]; assuming 100% transformation): 938 cells | changes (cell transformation) in the first 10 hours [4]: 80% | time for 80% of the transformation into phenotype A [4]: ≤ 10 h | restoration of the cell monolayer after 72 hours (A-549 cell line): incomplete | time of restoration of the cell monolayer (A-549 cell line): 72 h
